Reference: article PMC5441103, “Antiviral activity of phenanthrenes from the medicinal plant Bletilla striata against influenza A virus” (BMC Complementary and Alternative Medicine, 2017)
Several values for one entry are separate records, joined by “and”; a condition that tells them apart may be missing. Equal values may be shown once. Read-outs that look alike come from different tables or passages of the source.

What was measured:
[1] = tested on: influenza viral matrix protein mRNA; assay type: cell-based, influenza virus
[2] = tested on: influenza A/Sydney/5/97 (H3N2)
[3] = tested on: influenza virus A/Sydney/5/97 (H3N2); assay type: in vivo; settings: for -log2 HA titer (mean ± SD): 9-day-old embryonated hen eggs, 100 EID50, 34 °C 48 h, allantoic fluid
MDCK cells = experiment: Cytotoxicity to MDCK cells (MTS-based assay); assay type: cell-based, canine; settings: 48 h, read-out: CC50 (50% cytotoxic concentration)
Protocol: (§1) An MTS-based assay was performed to evaluate the cytotoxic effects of the test compounds on MDCK cells. Approximately 5 × 10^4 cells/well were seeded in 96-well microplates in MEM with 10% FBS at 37 °C in a humidified 5% CO2 incubator. When the monolayer was confluent, the cells were washed twice with PBS and then treated with compounds diluted in serum-free MEM. After incubation at 37 °C for 48 h, 20 μL of MTS was added to each well, and the cells were incubated for 2 h. The absorbance at 490 nm was determined using a microplate reader. The cell viability was calculated using the following formula: cell viability (%) = (drug treatment – background)/(control – background) × 100%. The half-maximal cytotoxic concentration (CC50) of the compounds was defined as the concentration that reduced the A490 of compound-treated cells to 50% of that of untreated cells.

neuraminidase (NA) = neuraminidase (NA) (Influenza A virus, UniProt Q80DL0); settings: for IC50: read-out: NA inhibitory activity IC50
Protocol: The neuraminidase inhibition assay was used to evaluate the effects of each compound on the neuraminidase activity of the influenza virus, according to the instructions of the Neuraminidase Inhibitors Screen Kit (Beyotime, China). Inhibition = [(C− S) / (C − C 0)] × 100%, where C is the fluorescence of the control (enzyme, buffer, and substrate) after 30 min of incubation, and C 0 is the fluorescence of the control (buffer and substrate). S is the fluorescence of the tested samples (enzyme, sample solution, and substrate) after incubation. Standard curves were made by plotting the percentage of fluorescence inhibition relative to the activity of virus controls against the log2 of concentrations. In addition, 10 μg/mL oseltamivir phosphate was used as the positive control. Then, 10 μL of NA in 70 μL of reaction buffer was mixed with equal volumes of twofold dilutions of the compounds. After a 2-min incubation at 37 °C, equal volumes (10 μL) of the substrate solution [2-(4-methylumbelliferyl)-α-D-N-acetylneuraminic acid sodium (4-MU-NANA)] were added, and the mixtures were further incubated for 30 min at 37 °C. The fluorescence intensity was measured using a fluorescence plate reader at an excitation wavelength of 322 nm and an emission wavelength of 450 nm. The 50% inhibitory concentration (IC50) was calculated by regression analysis with r ^2 ≥ 0.9, representing the mean values of three independent experiments [13, 29].

[4] = tested on: influenza A/Sydney/5/97 (H3N2); experiment: in vitro; settings: dog, MDCK cells
[5] = Cytotoxicity to MDCK cells (MTS-based assay); assay type: cell-based, canine; settings: dog, read-out: CC50 (50% cytotoxic concentration)
Protocol: as §1

[6] = tested on: influenza A/Sydney/5/97 (H3N2); experiment: microbe, parasite or virus in culture; settings: H3N2, MDCK
hemagglutinin (HA) = experiment: Hemagglutination inhibition assay (guinea pig RBC); settings: 4 HAU virus, 1.5% guinea pig RBC
Protocol: The hemagglutination inhibition assay was used to study whether the compound could block the SA-containing receptors. The phenanthrenes from B. striata and oseltamivir phosphate were all tested Fresh guinea pig blood was collected at the Laboratory Animal Research Center of the Zhejiang Chinese Medical University, supplemented with 1.6% sodium citrate in sterile water. Then, red blood cells (RBC) were separated by centrifugation (800×g for 10 min at room temperature), washed three times with sterile PBS, and then suspended at a concentration of 1.5%. The least number of virus particles able to agglutinate the guinea pig RBC was determined in a serial virus dilution as four hemagglutination units (HAU). PBS instead of the compounds was used as the hemagglutinating positive control and no-virus RBC as the hemagglutinating negative control. Then, 50 μL of the compounds in serial twofold dilutions in PBS were mixed with 50 μL of 4 HAU influenza virus suspension, incubated for 1 h at 37 °C, mixed with an equal volume of 1.5% guinea pig RBC suspension for 1 h at room temperature, and then monitored for agglutination [10, 11].

[7] = read-out: Simultaneous treatment IC50
[8] = Post-treatment SI (selective index; CC50mean/IC50mean), post-treatment
[9] = Simultaneous treatment SI (selective index; CC50mean/IC50mean), simultaneous treatment
[10] = 72 h, read-out: Simultaneous treatment IC50

Row | Molecule | Matrix protein mRNA transcription (normalized to GAPDH) [1] | IC50 ([2]; read-out: Post-treatment IC50) | IC50 [2, 7] | CC50 (MDCK cells) | Post-treatment IC50 [2] | Simultaneous treatment IC50 [2] | IC50 (neuraminidase (NA)) | Post-treatment SI (selective index; CC50mean/IC50mean) [2] | Simultaneous treatment SI (selective index; CC50mean/IC50mean) [2] | NA inhibitory activity IC50 (neuraminidase (NA)) | other results
1 | 2,2′–dyhydroxyl-4,4′,7,7′-9′,10′-dihydro-1,6′-di-phenanthrene [Compound 11] | stronger inhibitory effect | 35.2 ± 3.7 µM | 38.6 ± 2.9 µM | – | – | – | – | – | – | – | Inhibition (%) ([3]; in vivo): 0.00%
2 | COc1cc(O)cc2c1-c1ccc(O)cc1CC2 [Compound 1, 2,7-dyhydroxyl-4-methoxy-9,10-dihydro-phenanthrene] | stronger inhibitory effect | – | – | 201 ± 18.6 µM | - (The results showed that antiviral effects against A/Sydney/5/97(H3N2) were less than 50% inhibition) | - (The results showed that antiviral effects against A/Sydney/5/97(H3N2) were less than 50% inhibition) | 72.6 ± 6.5 µM | – | – | – | –
3 | COc1ccc2c(ccc3c(-c4c(O)cc(OC)c5c4CCc4cc(O)ccc4-5)c(O)cc(OC)c32)c1 [Compound 2, 2,2,7′-trihydroxy-4,4′,7-trimethoxy-9′,10′-dihydro-1,1′-diphenanthrene] | stronger inhibitory effect | 31.4 ± 2.1 µM | 28.6 ± 4.3 µM | 67.9 ± 13.1 µM | – | – | – | 2.2 | 2.3 | - (key: -: Inhibitory effect on the NA was less than 50%.) | –
4 | COc1ccc2c(ccc3c(-c4c(O)c(OC)cc5c4CCc4cc(O)cc(OC)c4-5)c(O)cc(OC)c32)c1 [Compound 3, 2,2′,7′-trihydroxy-3′,4,5′,7-tetramethoxy-9′,10′-dihydro-1,1′-di-phenanthrene] | stronger inhibitory effect | 22.6 ± 1.8 µM | 20.4 ± 3.2 µM | 50.3 ± 6.2 µM | – | – | 16.8 ± 1.6 µM | 2.2 | 2.5 | – | –
5 | COc1cc(O)c2c(ccc3c(OC)c(O)ccc32)c1-c1c(OC)cc(O)c2c1ccc1c(OC)c(O)ccc12 [Compound 4, 4,4′,7,7′-tetrahydroxy-2,2′,8,8′-tetramethoxy-1,1′-di-phenanthrene] | most efficient, even more powerful than oseltamivir | 18.4 ± 3.1 µM | 14.6 ± 2.4 µM | 80 ± 20.1 µM | – | – | 21.7 ± 2.9 µM | 4.3 | 5.5 | – | –
6 | COc1cc(O)c2c(ccc3cc(O)ccc32)c1-c1c(OC)cc(O)c2c1ccc1c(OC)cccc12 [Compound 5, 4,4′,7′-trihydroxy-2,2′,8,-trimethoxy-1,1′-di-phenanthrene] | – | – | – | 96.8 ± 15.6 µM | - (The results showed that antiviral effects against A/Sydney/5/97(H3N2) were less than 50% inhibition) | - (The results showed that antiviral effects against A/Sydney/5/97(H3N2) were less than 50% inhibition) | – | – | – | - (key: -: Inhibitory effect on the NA was less than 50%.) | Inhibition (%) ([3]; in vivo): 0.00% and 6.90% and 3.45%
7 | COc1cc(O)c2c(ccc3cc(O)ccc32)c1-c1c(OC)cc(O)c2c1ccc1cc(O)ccc12 [Compound 6, 4,4′,7,7′-tetrahydroxy-2,2′-dimethoxy-1,1′-di-phenanthrene] | stronger inhibitory effect | 37.3 ± 3.2 µM | 33.8 ± 2.7 µM | 106 ± 21.2 µM | – | – | 16.1 ± 2.6 µM | 2.8 | 3.1 | – | –
8 | COc1ccc2c(ccc3c(-c4c(OC)cc(O)c5c4ccc4cc(O)ccc45)c(OC)cc(O)c32)c1 [Compound 7, 4,4′,7-trihydroxy-2,2′,7′-trimethoxy-1,1′-di-phenanthrene] | stronger inhibitory effect | 31.2 ± 2.2 µM | 28.5 ± 2.8 µM | 130 ± 15.6 µM | – | – | – | 4.1 | 4.5 | - (key: -: Inhibitory effect on the NA was less than 50%.) | Inhibition (%) ([3]; in vivo): 0.00%
9 | COc1cc(O)c2c(ccc3cc(O)ccc32)c1-c1c(OC)cc(O)c2c1ccc1c(OC)c(O)ccc12 [Compound 8, 4,4′,7,7′-tetrahydroxy-2,2′,8-trimethoxy-1,1′-di-phenanthrene] | – | – | – | 111 ± 17.3 µM | - (The results showed that antiviral effects against A/Sydney/5/97(H3N2) were less than 50% inhibition) | - (The results showed that antiviral effects against A/Sydney/5/97(H3N2) were less than 50% inhibition) | – | – | – | - (key: -: Inhibitory effect on the NA was less than 50%.) | –
10 | COc1cc(O)c2c(c1)CCc1cccc(O)c1-2 [Compound 9, 4,5-dyhydroxyl-2-methoxy-9,10-dihydro-phenanthrene] | stronger inhibitory effect | – | – | 160 ± 20.4 µM | - (The results showed that antiviral effects against A/Sydney/5/97(H3N2) were less than 50% inhibition) | - (The results showed that antiviral effects against A/Sydney/5/97(H3N2) were less than 50% inhibition) | – | – | – | - (key: -: Inhibitory effect on the NA was less than 50%.) | –
11 | COc1ccc2c(ccc3cc(O)cc(OC)c32)c1 [Compound 10, 2-hydroxyl-4,7-dimethoxyphenanthrene] | stronger inhibitory effect | – | – | – | – | – | – | – | – | – | selectivity ratio at 72 h [4, 8]: 3.4; selectivity ratio at 72 h [4, 9]: 3.3; CC50 at 48 h [5]: 142 ± 25 µM; IC50 [6, 10]: 43.3 ± 5.3 µM; IC50 ([6]; read-out: Post-treatment IC50): 42.3 ± 3.9 µM; -log2 HA titer (mean ± SD) ([3]; 0.04 mmol/egg): 6.00 ± 0.71; Inhibition (%) ([3]; 0.04 mmol/egg, embryonated hen eggs, 100 EID50, 48 h): 0.00%; -log2 HA titer (mean ± SD) ([3]; 0.08 mmol/egg): 3.20 ± 0.40; Inhibition (%) ([3]; 0.08 mmol/egg, embryonated hen eggs, 100 EID50, 48 h): 44.8% and 44.83%
12 | COc1cc(O)cc2ccc3cc(O)ccc3c12 [Compound 12, 2,7-dyhydroxyl-4-methoxyphenanthrene] | – | – | – | 116 ± 16.8 µM | - (The results showed that antiviral effects against A/Sydney/5/97(H3N2) were less than 50% inhibition) | - (The results showed that antiviral effects against A/Sydney/5/97(H3N2) were less than 50% inhibition) | – | – | – | - (key: -: Inhibitory effect on the NA was less than 50%.) | –
13 | CCOC(=O)C1=C[C@@H](OC(CC)CC)[C@H](NC(C)=O)[C@@H](N)C1 [Oseltamivir, reference compound] | – | – | – | – | – | – | – | – | – | – | selectivity ratio at 72 h [4, 8]: 665; selectivity ratio at 72 h [4, 9]: 122; CC50 at 48 h [5]: 599 ± 62.1 µM; IC50 [6, 10]: 4.9 ± 0.9 µM; IC50 ([6]; read-out: Post-treatment IC50): 0.9 ± 0.2 µM; -log2 HA titer (mean ± SD) ([3]; 0.01 mmol/egg): 0.00 ± 0.00; Inhibition (%) ([3]; 0.01 mmol/egg, embryonated hen eggs, 100 EID50, 48 h): 100.00%; Inhibition of hemagglutination by the influenza virus (hemagglutinin (HA)): could not inhibit hemagglutination
